Data: patent publication US20040092548A1, “OPHTHALMIC TREATMENT” (priority 1995, published 2004)
Structures can show the parent of a compound that is named as a salt.

Experiments:
[1] = test system: white New Zealand rabbits; assay: Mydriatic response (pupil dilation, RRmax) after ocular dosing of ephedrine hydrochloride; assay type: in vivo; settings: 5 μl of 5% solution (250 μg) as droplet stream compared with 5 μl 5% and 25 μl 1% instillates (250 μg each); rabbit
Procedure: Six white New Zealand rabbits were administered with the following dosage regimen:
I→25 μl of 1% aqueous ephedrine hydrochloride solution (250 μg) via pipette (instillate)
II→5 μl of 5% aqueous ephedrine hydrochloride solution (250 μg) via pipette (instillate)
III→5 μl of 5% aqueous ephedrine hydrochloride solution (250 μg) in a jet/stream of droplets of diameter in the range 200 to 400 μm.
Pupil diameter measurements were determined from photographs acquired using a Pentax ME super 35 mm camera fitted with a SMC Pentax 50 mm lens and a 2x converter. An aperture setting of 12, and a shutter speed of 1/15 was employed with a film speed of ISO 400 (Kodak Gold 400). The camera was held stationary on a tripod and positioned approximately 30-40 cm from the rabbits eye. Prior to each dosing period the animals were acclimatised to experimental conditions (constant light intensity, minimal distractions) for 20 min. The rabbits were placed in restraining boxes and settled before photographs and baseline pupil diameters were determined 5 min prior to dosing.
Pupillary diameters were determined from the developed colour prints (6×4) using an electronic micrometer (Digimatic Caliper, Mitutoyo Corp., Japan). […] The maximum response ratio (RRmax) for pupil dilation was then calculated from the photographs using the following relationship: […]

[2] = Ocular distribution study of tritiated propranolol hydrochloride; assay type: in vivo, rabbit
Procedure: 40 μl of 0.5% aqueous tritiated propranolol hydrochloride solution (200 μg) was administered via pipette into the conjunctival sac of twelve New Zealand white rabbit eyes. Seperately, 5 μl of 4% aqueous tritiated propranolol hydrochloride solution (200 μg) was applied as a jet or stream of droplets (with a diameter in the range of 200 μm to 400 μm) to the surface (cornea and/or conjunctiva) of twelve different New Zealand white rabbit eyes
Following each treatment, four eyes were ennucleated after 15 minutes, four after 30 minutes and the remaining four after 60 minutes. In each case, the animals were humanely killed prior to the ocular ennucleation procedure via an overdose of sodium pentobarbitol injected into a marginal ear vein. Each eye was then irrigated by instilling 100 μl of normal saline into the conjunctival sac using an automatic pipette and immediately blotting away excess saline with paper tissue to remove any radioactivity in the tear film. Following ennucleation and removal of the adnexal tissue, the cornea was washed with a second 100 μl of normal saline. The aqueous humor was then quickly removed by paracentesis with a 1 ml syringe and 26G needle. To this was then added an equal volume of trichloroacetic acid (TCA) solution (10% w/v) to bring the final concentration to 5% w/v TCA. Both eyes were then dissected from the posterior pole to allow removal of the vitreous humor and the lens, whilst the iris-cilary body was transferred to a tared sample tube. The cornea was then removed using a 12 mm trephine, and the limbal cornea and conjunctiva (with underlying sclera) cut free into a strip approximately 5 mm wide using a scalpel and scissors. Each sample was then weighed in a tared sample tube and at least 5 volumes of TCA (6% w/v) added. All tissue samples were subjected to sonication for 5 minutes, then centrifuged at 10 000 g.min. to yield a supernatent. Each supernatent was then extracted 3 times with 3 volumes of ether and, after evaporation of residual solvent, the aqueous residue was sampled and added to 5 ml of FluoronSafe XE “Scintron” scintillation fluid (BDH Chemicals, UK). Radioactivity was then determined by counting in a Packard 1600DR beta-scintillation counter. Data gathered as counts per minute was then converted into disintegrations per minute (dpm), using external standardisation, and expressed as dpm […] after adjusting for the total radioactivity in each dose. Due to the small number of samples per time point per treatment, statistical analysis was not considered appropriate for this study.
The results of this study are summarised for the different ocular tissues in tables 1 to 4 below, where the values shown represent dpm (disintegrations per minute) per mg of tissue.

[3] = test system: white New Zealand rabbits; assay: Miotic response (pupil diameter) after ocular dosing of pilocarpine hydrochloride, randomised cross-over study; assay type: in vivo; settings: rabbit; for AUC (0-4 hours), area under the pupillary diameter vs. time curve / RR max: ± SD
Procedure: Ten white New Zealand rabbits were treated with the following dosage regimen in a randomised cross-over study:
30 μl of 1% aqueous pilocarpine hydrochloride solution (300 μg) was instilled via pipette into the conjunctival sac 5 μl of 1% aqueous pilocarpine hydrochloride solution (50 μg) was applied as a jet and/or stream of droplets (with a diameter in the range of 200 μm to 400 μm) to the surface of the cornea.
In order to determine pupil diameters, a metallic rule with a circular aperture of known diameter was orientated perpendicular to, and at an appropriate fixed distance from, a video camera fitted with a macro lens (Sony V8 Pro-CDD-V100E) throughout the study. During miotic measurements, the animals were positioned such that the left eye was parallel to the ruler and equidistant from the video camera. The video camera was actuated to project and amplify images of both the reference aperture and left eye onto the monitor screen. The diameters of both the reference aperture and pupil were then measured on the screen using a ruler placed on the projected image at an angle of approximately […]. The value of the pupil diameter was then calculated by multiplying the projected screen pupil diameter by the ratio of the actual reference diameter (8 mm) to the projected screen reference diameter (18 mm).
Pupil measurements were taken at approximately 60, 45, 30 and 15 minute intervals prior to administration of the treatments to provide a baseline value, and then at 15 minute intervals for the first hour after dosing. Thereafter, the pupil diameter was measured at 30 minute intervals for a minimum duration of 4 hours after dose administration.
For the purpose of statistical analysis of variants between treatments, the following parameters were determined: RR max=(pupil diameter at time t−pupil diameter at time 0)/pupil diameter at time 0; T max=the first time point at which the smallest pupillary diameter was observed; and AUC (0-4 hours)=the area under the pupillary diameter vs. time curve between 0 and 4 hours after treatment.
All significance tests were two-tailed and were performed at the 5% significance level. The statistical software SAS V607 and the PROC GLM procedure were used in the analysis.

[4] = cited from earlier work
[5] = 0.5% 40 μl large eyedrop (200 μg), 15 mins
[6] = 0.5% 40 μl large eyedrop (200 μg), 30 mins
[7] = 0.5% 40 μl large eyedrop (200 μg), 60 mins
[8] = 4.0% 5 μl jet and/or stream of droplets (200 μg), 15 mins
[9] = 4.0% 5 μl jet and/or stream of droplets (200 μg), 30 mins
[10] = 4.0% 5 μl jet and/or stream of droplets (200 μg), 60 mins
[11] = 1% 5 μl jet and/or stream of droplets (50 μg) to cornea
[12] = 1% 30 μl large eyedrop (300 μg) instilled into conjunctival sac
[13] = 5 μl eye drop loaded with 26.1 μg

## CN[C@@H](C)[C@H](O)c1ccccc1 [Ephedrine, ephedrine hydrochloride]
[1]
  Mydriatic response (RRmax vs time, FIG. 1): more pronounced and maintained over a longer duration compared to both instillates

## CC(C)NCC(O)COc1cccc2ccccc12 (centres unmarked) [Propranolol, propranolol hydrochloride]
[2]; [5]
  Radioactivity in aqueous humor: 1310 dpm per mg of tissue
  Radioactivity in conjunctiva/sclera: 2569 dpm per mg of tissue
  Radioactivity in cornea: 5579 dpm per mg of tissue
  Radioactivity in iris-cilary body: 942 dpm per mg of tissue
[2]; [6]
  Radioactivity in aqueous humor: 960 dpm per mg of tissue
  Radioactivity in conjunctiva/sclera: 2838 dpm per mg of tissue
  Radioactivity in cornea: 3467 dpm per mg of tissue
  Radioactivity in iris-cilary body: 1033 dpm per mg of tissue
[2]; [7]
  Radioactivity in aqueous humor: 705 dpm per mg of tissue
  Radioactivity in conjunctiva/sclera: 1380 dpm per mg of tissue
  Radioactivity in cornea: 2945 dpm per mg of tissue
  Radioactivity in iris-cilary body: 799 dpm per mg of tissue
[2]; [8]
  Radioactivity in aqueous humor: 1845 dpm per mg of tissue
  Radioactivity in conjunctiva/sclera: 5286 dpm per mg of tissue
  Radioactivity in cornea: 5241 dpm per mg of tissue
  Radioactivity in iris-cilary body: 2256 dpm per mg of tissue
[2]; [9]
  Radioactivity in aqueous humor: 1176 dpm per mg of tissue
  Radioactivity in conjunctiva/sclera: 2259 dpm per mg of tissue
  Radioactivity in cornea: 3766 dpm per mg of tissue
  Radioactivity in iris-cilary body: 1482 dpm per mg of tissue
[2]; [10]
  Radioactivity in aqueous humor: 607 dpm per mg of tissue
  Radioactivity in conjunctiva/sclera: 1673 dpm per mg of tissue
  Radioactivity in cornea: 1861 dpm per mg of tissue
  Radioactivity in iris-cilary body: 586 dpm per mg of tissue
[2]; 15 minute time point, 200 μg each
  Level reaching the iris-ciliary body from jet and/or stream of droplets relative to eyedrop: more than double
[2]; all ocular tissues, all time points, both treatments
  Radioactivity in ocular tissues: Significant radioactivity was detected

## CC[C@@H]1C(=O)OC[C@@H]1Cc1cncn1C [Pilocarpine, pilocarpine hydrochloride]
[3]; [11]
  AUC (0-4 hours), area under the pupillary diameter vs. time curve: 3827 ± 312 mmMin.
  RR max: 12.3 ± 5.2 %
[3]; [12]
  AUC (0-4 hours), area under the pupillary diameter vs. time curve: 3871 ± 340 mmMin.
  RR max: 15.2 ± 4.0 %
[3]; both dose forms (30 μl eyedrop 300 μg; 5 μl jet 50 μg), after 15 minutes
  Pupil diameter after administration: reduction in pupil diameter was evident
[3]; both dose forms
  Time after treatment at which the miotic effect started to disappear: 60 to 90 min
  Time after which pupil measurements had fully recovered to predose levels: 120 min

## CC[C@@H]1C(=O)OC[C@@H]1Cc1cncn1C [pilocarpine nitrate]
[4]; [13]
  Drug available for potential systemic absorption: 25.7 µg
  Fraction of drug absorbed into the eye: 0.41 µg
[4]; 25 μl drop loaded with 67.8 μg
  Drug left to be absorbed systemically: 67.4 µg
  Drug penetrated the eye: 0.36 µg
